Test results: the NIST ThermoML archive (doi:10.1021/je400659p)
± gives the expanded uncertainty stated by the source.

Experiments:
[1] = xn = mol fraction of the nth substance listed; details: 101 kPa, Liquid, Vibrating tube method
[2] = refractive index (Na D-line) (dimensionless); xn = mol fraction of the nth substance listed; details: 101 kPa, Liquid, Standard Abbe refractometry

C1COCCO1 [1,4-dioxane] + CCCCn1cc[n+](C)c1.F[B-](F)(F)F
Details | mass density, [1] [kg/m3] | refractive index, [2]
293.15 K, x2 = 0 | 1033.57 ± 0.26 | –
293.15 K, x2 = 0.2559 | 1118.75 ± 0.35 | –
293.15 K, x2 = 0.3956 | 1146.31 ± 0.36 | –
293.15 K, x2 = 0.4988 | 1161.37 ± 0.36 | –
293.15 K, x2 = 0.6 | 1173.1 ± 0.37 | –
293.15 K, x2 = 0.7021 | 1183.04 ± 0.38 | –
293.15 K, x2 = 0.8993 | 1198.09 ± 0.39 | –
298.15 K, x2 = 0 | 1027.92 ± 0.25 | 1.4205 ± 0.0004
298.15 K, x2 = 0.2559 | 1114.31 ± 0.34 | 1.4253 ± 0.0004
298.15 K, x2 = 0.3956 | 1142.23 ± 0.35 | 1.4258 ± 0.0004
298.15 K, x2 = 0.4988 | 1157.44 ± 0.36 | 1.4256 ± 0.0004
298.15 K, x2 = 0.6 | 1169.26 ± 0.37 | 1.4249 ± 0.0004
298.15 K, x2 = 0.7021 | 1179.3 ± 0.38 | 1.4241 ± 0.0004
298.15 K, x2 = 0.8993 | 1194.53 ± 0.39 | 1.4222 ± 0.0004
303.15 K, x2 = 0 | 1022.27 ± 0.25 | 1.4171 ± 0.0004
303.15 K, x2 = 0.2559 | 1109.87 ± 0.34 | 1.4236 ± 0.0004
303.15 K, x2 = 0.3956 | 1138.14 ± 0.35 | 1.4244 ± 0.0004
303.15 K, x2 = 0.4988 | 1153.51 ± 0.36 | 1.4242 ± 0.0004
303.15 K, x2 = 0.6 | 1165.45 ± 0.37 | 1.4235 ± 0.0004
303.15 K, x2 = 0.7021 | 1175.57 ± 0.37 | 1.4225 ± 0.0004
303.15 K, x2 = 0.8993 | 1190.95 ± 0.39 | 1.4207 ± 0.0004
313.15 K, x2 = 0 | 1010.91 ± 0.24 | 1.4112 ± 0.0004
313.15 K, x2 = 0.2559 | 1101.06 ± 0.33 | 1.4196 ± 0.0004
313.15 K, x2 = 0.3956 | 1130.01 ± 0.34 | 1.421 ± 0.0004
313.15 K, x2 = 0.4988 | 1145.69 ± 0.35 | 1.4211 ± 0.0004
313.15 K, x2 = 0.6 | 1157.84 ± 0.36 | 1.4206 ± 0.0004
313.15 K, x2 = 0.7021 | 1168.15 ± 0.37 | 1.4199 ± 0.0004
313.15 K, x2 = 0.8993 | 1183.8 ± 0.38 | 1.4183 ± 0.0004
323.15 K, x2 = 0 | 999.49 ± 0.23 | 1.4063 ± 0.0004
323.15 K, x2 = 0.2559 | 1092.28 ± 0.33 | 1.4161 ± 0.0004
323.15 K, x2 = 0.3956 | 1121.91 ± 0.34 | 1.4179 ± 0.0004
323.15 K, x2 = 0.4988 | 1137.92 ± 0.35 | 1.4181 ± 0.0004
323.15 K, x2 = 0.6 | 1150.29 ± 0.35 | 1.4177 ± 0.0004
323.15 K, x2 = 0.7021 | 1160.77 ± 0.36 | 1.4169 ± 0.0004
323.15 K, x2 = 0.8993 | 1176.68 ± 0.38 | 1.4155 ± 0.0004
333.15 K, x2 = 0 | 987.97 ± 0.23 | –
333.15 K, x2 = 0.2559 | 1083.47 ± 0.32 | –
333.15 K, x2 = 0.3956 | 1113.85 ± 0.33 | –
333.15 K, x2 = 0.4988 | 1130.18 ± 0.34 | –
333.15 K, x2 = 0.6 | 1142.79 ± 0.35 | –
333.15 K, x2 = 0.7021 | 1153.44 ± 0.36 | –
333.15 K, x2 = 0.8993 | 1169.6 ± 0.37 | –
343.15 K, x2 = 0 | 976.37 ± 0.23 | –
343.15 K, x2 = 0.2559 | 1074.65 ± 0.32 | –
343.15 K, x2 = 0.3956 | 1105.8 ± 0.32 | –
343.15 K, x2 = 0.4988 | 1122.47 ± 0.33 | –
343.15 K, x2 = 0.6 | 1135.31 ± 0.34 | –
343.15 K, x2 = 0.7021 | 1146.14 ± 0.35 | –
343.15 K, x2 = 0.8993 | 1162.53 ± 0.36 | –
353.15 K, x2 = 0 | 964.63 ± 0.23 | –
353.15 K, x2 = 0.2559 | 1065.8 ± 0.32 | –
353.15 K, x2 = 0.3956 | 1097.77 ± 0.32 | –
353.15 K, x2 = 0.4988 | 1114.8 ± 0.33 | –
353.15 K, x2 = 0.6 | 1127.87 ± 0.34 | –
353.15 K, x2 = 0.7021 | 1138.89 ± 0.34 | –
353.15 K, x2 = 0.8993 | 1155.57 ± 0.36 | –

CCn1cc[n+](C)c1.F[B-](F)(F)F [1-ethyl-3-methylimidazolium tetrafluoroborate] + C1COCCO1
Details | mass density, [1] [kg/m3] | refractive index, [2]
293.15 K, x1 = 0.3292 | 1171.62 ± 0.6 | –
293.15 K, x1 = 0.4547 | 1203.47 ± 0.73 | –
293.15 K, x1 = 0.4923 | 1211.84 ± 0.77 | –
293.15 K, x1 = 0.6409 | 1240.74 ± 0.96 | –
293.15 K, x1 = 0.6838 | 1246.89 ± 1 | –
293.15 K, x1 = 0.7851 | 1263.5 ± 1.2 | –
293.15 K, x1 = 0.8336 | 1270.18 ± 1.2 | –
293.15 K, x1 = 1 | 1290.63 ± 1.5 | –
298.15 K, x1 = 0.3292 | 1167.26 ± 0.6 | 1.4214 ± 0.0004
298.15 K, x1 = 0.4547 | 1199.31 ± 0.72 | 1.4197 ± 0.0005
298.15 K, x1 = 0.4923 | 1207.73 ± 0.76 | 1.4191 ± 0.0005
298.15 K, x1 = 0.6409 | 1236.77 ± 0.95 | 1.4165 ± 0.0005
298.15 K, x1 = 0.6838 | 1242.94 ± 1 | 1.4157 ± 0.0005
298.15 K, x1 = 0.7851 | 1259.61 ± 1.1 | 1.414 ± 0.0005
298.15 K, x1 = 0.8336 | 1266.32 ± 1.2 | 1.4132 ± 0.0005
298.15 K, x1 = 1 | 1286.82 ± 1.5 | 1.4111 ± 0.0005
303.15 K, x1 = 0.3292 | 1163 ± 0.59 | 1.4195 ± 0.0004
303.15 K, x1 = 0.4547 | 1195.16 ± 0.72 | 1.4181 ± 0.0005
303.15 K, x1 = 0.4923 | 1203.63 ± 0.76 | 1.4176 ± 0.0005
303.15 K, x1 = 0.6409 | 1232.79 ± 0.94 | 1.415 ± 0.0005
303.15 K, x1 = 0.6838 | 1238.89 ± 1 | 1.4143 ± 0.0005
303.15 K, x1 = 0.7851 | 1255.72 ± 1.1 | 1.4125 ± 0.0005
303.15 K, x1 = 0.8336 | 1262.45 ± 1.2 | 1.4118 ± 0.0005
303.15 K, x1 = 1 | 1283.02 ± 1.5 | 1.41 ± 0.0005
313.15 K, x1 = 0.3292 | 1154.24 ± 0.58 | 1.4163 ± 0.0004
313.15 K, x1 = 0.4547 | 1186.92 ± 0.71 | 1.4154 ± 0.0005
313.15 K, x1 = 0.4923 | 1195.48 ± 0.75 | 1.4149 ± 0.0005
313.15 K, x1 = 0.6409 | 1224.92 ± 0.93 | 1.4126 ± 0.0005
313.15 K, x1 = 0.6838 | 1231.17 ± 0.98 | 1.4118 ± 0.0005
313.15 K, x1 = 0.7851 | 1248.01 ± 1.1 | 1.41 ± 0.0005
313.15 K, x1 = 0.8336 | 1254.79 ± 1.2 | 1.4092 ± 0.0005
313.15 K, x1 = 1 | 1275.45 ± 1.4 | 1.4073 ± 0.0005
323.15 K, x1 = 0.3292 | 1145.14 ± 0.57 | 1.4129 ± 0.0004
323.15 K, x1 = 0.4547 | 1178.43 ± 0.69 | 1.4123 ± 0.0005
323.15 K, x1 = 0.4923 | 1187.38 ± 0.74 | 1.4119 ± 0.0005
323.15 K, x1 = 0.6409 | 1217.1 ± 0.92 | 1.4097 ± 0.0005
323.15 K, x1 = 0.6838 | 1223.4 ± 0.97 | 1.409 ± 0.0005
323.15 K, x1 = 0.7851 | 1240.36 ± 1.1 | 1.4074 ± 0.0005
323.15 K, x1 = 0.8336 | 1247.18 ± 1.2 | 1.4067 ± 0.0005
323.15 K, x1 = 1 | 1267.97 ± 1.4 | 1.4051 ± 0.0005
333.15 K, x1 = 0.3292 | 1136.98 ± 0.56 | –
333.15 K, x1 = 0.4547 | 1170.56 ± 0.68 | –
333.15 K, x1 = 0.4923 | 1179.33 ± 0.72 | –
333.15 K, x1 = 0.6409 | 1209.33 ± 0.9 | –
333.15 K, x1 = 0.6838 | 1215.68 ± 0.96 | –
333.15 K, x1 = 0.7851 | 1232.77 ± 1.1 | –
333.15 K, x1 = 0.8336 | 1239.64 ± 1.2 | –
333.15 K, x1 = 1 | 1260.55 ± 1.4 | –
343.15 K, x1 = 0.3292 | 1128.37 ± 0.56 | –
343.15 K, x1 = 0.4547 | 1162.44 ± 0.67 | –
343.15 K, x1 = 0.4923 | 1171.31 ± 0.71 | –
343.15 K, x1 = 0.6409 | 1201.62 ± 0.89 | –
343.15 K, x1 = 0.6838 | 1208.02 ± 0.94 | –
343.15 K, x1 = 0.7851 | 1225.24 ± 1.1 | –
343.15 K, x1 = 0.8336 | 1232.15 ± 1.1 | –
343.15 K, x1 = 1 | 1253.18 ± 1.4 | –
353.15 K, x1 = 0.3292 | 1120.41 ± 0.55 | –
353.15 K, x1 = 0.4547 | 1154.35 ± 0.66 | –
353.15 K, x1 = 0.4923 | 1163.32 ± 0.7 | –
353.15 K, x1 = 0.6409 | 1193.95 ± 0.88 | –
353.15 K, x1 = 0.6838 | 1200.41 ± 0.93 | –
353.15 K, x1 = 0.7851 | 1217.75 ± 1.1 | –
353.15 K, x1 = 0.8336 | 1225.41 ± 1.1 | –
353.15 K, x1 = 1 | 1245.87 ± 1.4 | –
